According to US20120328696A1, “ANTI-PARKINSONIAN COMPOUND ACETYLSALICYLIC ACID MALTOL ESTER” (Hutecs Korea Pharmaceutical Co., Ltd., priority 2008, published 2012):

What was measured:
Assay type in all cases: in vivo
PKCδ = test: Striatal PKCδ-like immunoreactivity after MA (immunocytochemistry); settings: p.o.; AME 50, EBS 20, rottlerin 20 mg/kg; MA 8 mg/kg i.p. x4; GPx-1 (+/+) and (−/−) mice
Protocol: (§1) The mice received four times of MA (8 mg/kg, ip) or saline as a 2 hr-time interval. Chemicals (AME, EBS, and PKC inhibitors) were administrated for 5 consecutive days (twice daily), and were given 2 times at 4 hr and 30 min before the first MA injection as shown in the experimental schedule. Animals were sacrificed at 4 hrs and 3 days after the final MA administration.
Animals were sacrificed at 4 hours and 3 days after the last MA injection. They were anesthetized with 60% urethane and perfused transcardially with 50 ml of 50 mM phosphate buffered saline (PBS), followed by 50 ml of a mixture of 4% paraformaldehyde in PBS. The rate of perfusion was 50 ml/min. The brains were removed, post-fixed at 4° C. for 24 h in the same fixative and then cryoprotected in 30% sucrose in PBS.
The immunocytochemistry was performed as described previously (Kim et al., 2000a, b). Briefly, prior to incubation with the primary antibodies, sections were preincubated with 0.3% hydrogen peroxide in PBS for 30 min (to block endogenous peroxidase activity), then in PBS containing 0.4% Triton X-100 for 20 min and 1% normal serum for 20 min. The sections were then incubated for 48 h at 4° C. in primary antibody against tyrosine hydroxylase (1:500, Chemicon, Termecula, Calif., USA), GPx1 (1:500, AbFrontier, Seoul, Korea), PKC (1:200, Santa Cruz biotechnology INC, CA, USA) or F4/80 (1:50, Serotec, Raleigh, N.C., USA). The sections were further incubated with secondary biotinylated antisera (1:1000 dilution; Vector, Brulingame, Calif.) for 1 hr, and immersed in avidin-biotin-peroxidase complex (ABC Elite kit, Vector) for 1 hr. Sections were always washed three times with PBS (pH 7.4) between each incubation step. 3,3′-diaminobenzidine (DAB) was used as a chromogen.

[1] = system: dopamine (DA), DOPAC, HVA; test: Striatal DA, DOPAC and HVA after MA (HPLC); settings: p.o.; AME 50, EBS 20, rottlerin 20 mg/kg; MA 8 mg/kg i.p. x4; GPx-1 (+/+) and (−/−) mice
Protocol: as §1
At 3 day after last MA injection, mice were killed by cervical dislocation and the brains were removed. Striatum was dissected and immediately frozen on dry ice, and stored at −70° C. until extraction. Striatum obtained from each animal was weighed, ultrasonicated in 10% perchloric acid containing 10 ng/mg of the internal standard dihydroxybenzylamine, and centrifuged at 20,000×g for 10 min. The levels of DA and its metabolites 3,4-dihydroxyphenylacetic acid (DOPAC) and homovanillic acid (HVA) in brain tissue extracts were determined by HPLC coupled with electrochemical detection as described (Kim et al., 1999). The 20 μl aliquot of the supernatant was injected into the HPLC equipped with a 3 μm C18 column. The mobile phase was comprised of 26 ml of acetonitrile, 21 ml of tetrahydrofuran and 960 ml of 0.15M monochloroacetic acid (pH 3.0) containing 50 mg/l of EDTA and 200 mg/l of sodium octyl sulfate. The amount of DA, DOPAC and HVA were determined by comparison of peak area of tissue sample with standard, and were expressed in nanograms per gram of wet tissue.

[2] = system: brain-derived neurotrophic factor (BDNF); test: Striatal BDNF expression after MA (western blot); settings: p.o.; AME 50, EBS 20, rottlerin 20 mg/kg; MA 8 mg/kg i.p. x4; GPx-1 (+/+) and (−/−) mice
Protocol: as §1
The western blot assays was performed as described previously (Kim et al., 2003). Tissues were homogenized in lysis buffer, containing 200 mM Tris HCl (pH 6.8), 1% SDS, 5 mM EGTA (ethylene glycol tetraacetic acid), 5 mM EDTA (ethylenediaminetetraacetic acid), 10% glycerol, 1× phosphatase inhibitor cocktail I, 1× protease inhibitor cocktail. Lysate was centrifuged at 12,000×g for 30 min and supernatant fraction was used for Western blot analysis. Proteins (20-50 ug/lane) were separated by 6%, 8%, 10% or 15% sodium dodecyl sulfate-polyacrylamide gel electrophoresis and transferred onto the PVDF membranes. Following transfer, the membranes were preincubated with 5% non-fat milk and incubated overnight at 4° C. with primary antibody against β-actin (1:50000, Sigma, St. Louis, Mo., USA), TH (1:5000, Chemicon), TH phosphor-Ser 19 (1:1000, Chemicon,), TH phosphor-Ser 31 (1:500, Chemicon), TH phosphor-Ser 40 (1:500, Chemicon), F4/80 (1:500, Serotec), GPx1 (1:2500, AbFrontier), PKC (1:5000, Santa Cruz biotechnology, Santa Cruz, Calif., USA), p53 (1:5000, Cell signaling, Beverly, Mass., USA), MDM2 (1:1000, BD Pharmingen, San Jose, Calif., USA), MDM2 phospho-Ser 166 (1:1000, cell signaling), BDNF (1:500, Chemicon), GDNF (1:250, Santa Cruz), COX-2 (1:2000, Cayman, Ann Arbor, MC, USA), IL-6 (1:2000, Abcam, Cambridge, Mass., USA), TNF-a (1:1000, R&D Systems, Mckinley place NE, NM, USA), IFN-γ (1:500, Chemicon) or Iba-1 (1:500, Wako, Osaka, Japan). And then, membranes were incubated with HRP-conjugated secondary anti-rabbit IgG (1:1000, GE healthcare, Piscataway, N.J., USA), anti-mouse IgG (1:1000, Sigma) or anti-goat IgG (1:1000, Sigma) for 2 h. […]

[3] = system: reactive oxygen species (ROS); test: Striatal ROS formation after MA; settings: striatum, 3 days after final MA; p.o.; AME 50, EBS 20, rottlerin 20 mg/kg; GPx-1 (+/+) and (−/−) mice
Protocol: as §1
The extent of reactive oxygen species (ROS) formation in the striatum was assessed by measuring the convertion from 2′,7′-dichlorofluorescin diacetate (DCFH-DA) to dichlorofluoresin (DCF) as describe by Bourre et al., (2002) with slight modification. Brain homogenates were added to a tube containing 2 ml of PBS with 10 nmole of DCFH-DA, dissolved in methanol. Mixture were incubated at 37° C. for 3 hours and then measured the absorbance at 480 nm excitation and 525 nm emission. DCF is used as a standard.

SMILES | effect on MA-induced increase in striatal PKCδ-IR (PKCδ) | effect on MA-induced change in DA turnover rate [1] | effect on MA-induced change in striatal DA level [1] | effect on MA-induced change in striatal DOPAC level [1] | effect on MA-induced change in striatal HVA level [1] | effect on MA-induced reduction in BDNF expression [2] | effect on MA-induced increase in ROS [3]
CC(=O)Oc1ccccc1C(=O)Oc1c(C)occc1=O [AME, 3-(2-methyl-4-pyronyl)-2-acetyloxybenzoate] | significantly attenuated MA-induced increase in striatal PKCδ-IR | significantly attenuated MA-induced dopaminergic impairment | significantly attenuated MA-induced dopaminergic impairment | significantly attenuated MA-induced dopaminergic impairment | significantly attenuated MA-induced dopaminergic impairment | significantly attenuated these reductions | significantly attenuated
CC(=O)c1c(O)c(C)c(O)c(Cc2c(O)c3c(c(C(=O)/C=C/c4ccccc4)c2O)OC(C)(C)C=C3)c1O [rottlerin] | significantly attenuated MA-induced increase in striatal PKCδ-IR | significantly attenuated MA-induced dopaminergic impairment | significantly attenuated MA-induced dopaminergic impairment | significantly attenuated MA-induced dopaminergic impairment | significantly attenuated MA-induced dopaminergic impairment | significantly attenuated these reductions | significantly attenuated
O=c1c2ccccc2[se]n1-c1ccccc1 [EBS, 2-phenyl-1,2-benzisoselenazol-3(2H)-one] | significantly attenuated MA-induced increase in striatal PKCδ-IR | significantly attenuated MA-induced dopaminergic impairment | significantly attenuated MA-induced dopaminergic impairment | significantly attenuated MA-induced dopaminergic impairment | significantly attenuated MA-induced dopaminergic impairment | significantly attenuated these reductions | significantly attenuated
